From US10368545B2, “Substituted 2-thioimidazolylcarboxamides as pesticides” (BAYER CROPSCIENCE AKTIENGESELLSCHAFT, priority 2015, dated 2019)
Several values for one entry are separate records, joined by “and”; a condition that tells them apart may be missing. Equal values may be shown once. Read-outs that look alike come from different tables or passages of the source.

Key:
[1] = tested on: green peach aphid (Myzus persicae); assay: Myzus persicae spray test (Chinese cabbage leaf discs); assay type: in vivo; conditions: for pest or weed control at 500 g/ha: Myzus persicae, foliar, read-out: efficacy (aphids killed)
Experimental: Myzus persicae—Spray Test
Solvent: 78 parts by weight of acetone • • 1.5 parts by weight of dimethylformamide
(§1) Emulsifier: alkylaryl polyglycol ether
(§2) To produce a suitable active compound preparation, 1 part by weight of active compound is dissolved using the stated parts by weight of solvent and made up with water containing an emulsifier concentration of 1000 ppm until the desired concentration is attained. To produce further test concentrations, the preparation is diluted with emulsifier-containing water.
Discs of Chinese cabbage leaves (Brassica pekinensis) infested by all stages of the green peach aphid (Myzus persicae) are sprayed with an active compound preparation of the desired concentration.
After 5 or 6 days, the efficacy in % is determined. 100% means that all the aphids were killed; 0% means that no aphids were killed.

[2] = log P by HPLC on reversed-phase C18 columns (OECD Guideline 117); assay type: physicochemical
Experimental: The log P values were determined in accordance with OECD Guideline 117 (EC Directive 92/69/EEC) by HPLC (high-performance liquid chromatography) using reversed-phase (RP) columns (C18), by the following methods:
[a] The LC-MS determination in the acidic range was carried out at pH 2.7 with 0.1% aqueous formic acid and acetonitrile (contains 0.1% formic acid) as mobile phases; linear gradient from 10% acetonitrile to 95% acetonitrile.
[b] LC-MS determination in the neutral range was carried out at pH 7.8 with 0.001 molar aqueous ammonium hydrogencarbonate solution and acetonitrile as mobile phases; linear gradient from 10% acetonitrile to 95% acetonitrile.

[3] = tested on: green peach aphid (Myzus persicae); assay: Contrasting example: Myzus persicae spray test (MYZUPE); assay type: in vivo; conditions: for pest or weed control at 100 g/ha: Myzus persicae, 144 h, read-out: % efficacy
Experimental: Myzus persicae—Spray Test (MYZUPE)
Solvents: 78.0 parts by weight of acetone • • 1.5 parts by weight of dimethylformamide
as §1, §2
Discs of Chinese cabbage leaves (Brassica pekinensis), infested by all stages of the green peach aphid (Myzus persicae) are sprayed with an active compound preparation of the desired concentration.
After the desired period of time, the efficacy in % is determined. 100% means that all aphids were killed; 0% means that no aphids were killed.

[4] = application rate 500 g/ha, after 5 or 6 days, Chinese cabbage leaf discs
[5] = reversed-phase C18 HPLC column, pH 2.7, acidic range, pH 2.7, 0.1% aqueous formic acid / acetonitrile, read-out: log P[a]
[6] = reversed-phase C18 HPLC column, pH 7.8, neutral range, pH 7.8, 0.001 molar aqueous ammonium hydrogencarbonate / acetonitrile, read-out: log P[n]
[7] = reversed-phase C18 HPLC column, pH 2.7, method [a], read-out: logP[a]
[8] = reversed-phase C18 HPLC column, pH 7.8, method [b], read-out: logP[b]

Cc1cc(C)nc(Sc2ncc(C(=O)N(C)c3cccnc3)n2C)n1 [I-A-1]
pest or weed control at 500 g/ha [1, 4]: 100%
log P[a] ([2]; acidic range, pH 2.7, 0.1% aqueous formic acid / acetonitrile): 1.26
log P[n] ([2]; neutral range, pH 7.8, 0.001 molar aqueous ammonium hydrogencarbonate / acetonitrile): 1.46
chromatographic logP [2, 5]: 1.31
chromatographic logP [2, 6]: 1.41
pest or weed control at 100 g/ha ([3]; MYZUPE, 100 g ai/ha, 6 dat): 100%

CN(C(=O)c1cnc(SCC2CC2)n1C)c1cccnc1 [I-A-2]
pest or weed control at 500 g/ha [1, 4]: 100%
chromatographic logP [2, 5]: 1.28
chromatographic logP [2, 6]: 1.81
pest or weed control at 100 g/ha ([3]; MYZUPE, 100 g ai/ha, 6 dat): 90%

CN(C(=O)c1cnc(Sc2ncccn2)n1C)c1cccnc1 [I-A-3]
pest or weed control at 500 g/ha [1, 4]: 100%
chromatographic logP [2, 5]: 0.69
chromatographic logP [2, 6]: 0.98
pest or weed control at 100 g/ha ([3]; MYZUPE, 100 g ai/ha, 6 dat): 90%

CCCCSc1ncc(C(=O)N(C)c2cccnc2)n1C [I-A-5]
efficacy (aphids killed) [1, 4]: 90%
logP[a] ([2]; method [a]): 1.67
logP[b] ([2]; method [b]): 1.99
% efficacy ([3]; MYZUPE, 100 g ai/ha, 6 dat): 100%

CN(C(=O)c1cnc(S(C)(=O)=O)n1C)c1cccnc1 [I-A-8]
efficacy (aphids killed) [1, 4]: 100%
logP[a] ([2]; method [a]): 0.45
logP[b] ([2]; method [b]): 0.67
% efficacy ([3]; MYZUPE, 100 g ai/ha, 6 dat): 90%

CSc1cccc(Sc2ncc(C(=O)N(C)c3cccnc3)n2C)c1 [I-A-9]
efficacy (aphids killed) ([1]; application rate 20 g/ha, after 5 or 6 days, Chinese cabbage leaf discs): 90%
logP[a] ([2]; method [a]): 2.0
logP[b] ([2]; method [b]): 2.12
% efficacy ([3]; MYZUPE, 100 g ai/ha, 6 dat): 70%

CN(C(=O)c1cnc(SCC(F)(F)F)n1C)c1cccnc1 [I-A-10]
efficacy (aphids killed) [1, 4]: 100%
logP[a] ([2]; method [a]): 1.41
logP[b] ([2]; method [b]): 1.54
% efficacy ([3]; MYZUPE, 100 g ai/ha, 6 dat): 100%

CN(C(=O)c1cnc(Sc2ccccc2)n1C)c1cccnc1 [I-A-11]
efficacy (aphids killed) [1, 4]: 100%
logP[a] ([2]; method [a]): 1.55
logP[b] ([2]; method [b]): 1.75
% efficacy ([3]; MYZUPE, 100 g ai/ha, 6 dat): 90%

Cc1ccc(Sc2ncc(C(=O)N(C)c3cccnc3)n2C)cc1 [I-A-12]
efficacy (aphids killed) [1, 4]: 90%
logP[a] ([2]; method [a]): 1.89
logP[b] ([2]; method [b]): 2.03
% efficacy ([3]; MYZUPE, 100 g ai/ha, 6 dat): 70%

CCSCCSc1ncc(C(=O)N(C)c2cccnc2)n1C [I-A-14]
efficacy (aphids killed) [1, 4]: 90%
logP[a] ([2]; method [a]): 1.61
logP[b] ([2]; method [b]): 1.87
% efficacy ([3]; MYZUPE, 100 g ai/ha, 6 dat): 90%

COCCSc1ncc(C(=O)N(C)c2cccnc2)n1C [I-A-18]
efficacy (aphids killed) [1, 4]: 100%
logP[a] ([2]; method [a]): 0.76
logP[b] ([2]; method [b]): 1.14
% efficacy ([3]; MYZUPE, 100 g ai/ha, 6 dat): 90%

CC(C)Sc1ncc(C(=O)N(C)c2cccnc2)n1C [I-A-19]
efficacy (aphids killed) [1, 4]: 100%
logP[a] ([2]; method [a]): 1.23
logP[b] ([2]; method [b]): 1.53
% efficacy ([3]; MYZUPE, 100 g ai/ha, 6 dat): 90%

CCCSc1ncc(C(=O)N(C)c2cccnc2)n1C [I-A-21]
efficacy (aphids killed) [1, 4]: 100%
logP[a] ([2]; method [a]): 1.31
logP[b] ([2]; method [b]): 1.60
% efficacy ([3]; MYZUPE, 100 g ai/ha, 6 dat): 100%

CCOCCSc1ncc(C(=O)N(C)c2cccnc2)n1C [I-A-22]
efficacy (aphids killed) [1, 4]: 100%
logP[a] ([2]; method [a]): 1.04
logP[b] ([2]; method [b]): 1.41
% efficacy ([3]; MYZUPE, 100 g ai/ha, 6 dat): 90%

CSCCSc1ncc(C(=O)N(C)c2cccnc2)n1C [I-A-26]
efficacy (aphids killed) [1, 4]: 100%
logP[a] ([2]; method [a]): 1.23
logP[b] ([2]; method [b]): 1.55
% efficacy ([3]; MYZUPE, 100 g ai/ha, 6 dat): 70%

C=CCSc1ncc(C(=O)N(C)c2cccnc2)n1C [I-A-27]
efficacy (aphids killed) [1, 4]: 90%
logP[a] ([2]; method [a]): 1.08 and 1.11
logP[b] ([2]; method [b]): 1.40
% efficacy ([3]; MYZUPE, 100 g ai/ha, 6 dat): 70%

C#CCSc1ncc(C(=O)N(C)c2cccnc2)n1C [I-A-30]
efficacy (aphids killed) [1, 4]: 90%
logP[a] ([2]; method [a]): 0.87
logP[b] ([2]; method [b]): 1.22
% efficacy ([3]; MYZUPE, 100 g ai/ha, 6 dat): 90%

CCSc1ncc(C(=O)N(C)c2cccnc2)n1C [I-A-36]
efficacy (aphids killed) [1, 4]: 90%
logP[a] ([2]; method [a]): 0.95
logP[b] ([2]; method [b]): 1.31
% efficacy ([3]; MYZUPE, 100 g ai/ha, 6 dat): 90%

CN(C(=O)c1cnc(SC(F)(F)F)n1C)c1cccnc1 [I-A-37]
pest or weed control at 500 g/ha [1]: 100%
chromatographic logP [2, 7]: 1.29
chromatographic logP [2, 8]: 1.45
pest or weed control at 100 g/ha [3]: 100%

CN(C(=O)c1cnc(SC(F)F)n1C)c1cccnc1 [I-A-38]
pest or weed control at 500 g/ha [1]: 90%
chromatographic logP ([2]; pH 2.7, method [a], read-out: logP[a]): 0.91
chromatographic logP ([2]; pH 7.8, method [b], read-out: logP[b]): 1.17
pest or weed control at 100 g/ha [3]: 70%

CCS(=O)(=O)c1ncc(C(=O)N(C)c2cccnc2)n1C [I-A-40]
efficacy (aphids killed) [1, 4]: 100%
logP[a] ([2]; method [a]): 0.68
logP[b] ([2]; method [b]): 0.88
% efficacy ([3]; MYZUPE, 100 g ai/ha, 6 dat): 90%

CNC(=O)C[S+]([O-])c1ncc(C(=O)N(C)c2cccnc2)n1C (centres unmarked) [I-A-43]
chromatographic logP [2, 7]: 0.27
chromatographic logP [2, 8]: 0.22
pest or weed control at 100 g/ha ([3]; MYZUPE, 100 g ai/ha, 6 dat): 70%

CSc1ncc(C(=O)N(C)c2cccnc2)n1C [I-A-45]
pest or weed control at 500 g/ha [1, 4]: 100%
chromatographic logP [2, 7]: 0.54
chromatographic logP [2, 8]: 1.04
pest or weed control at 100 g/ha ([3]; MYZUPE, 100 g ai/ha, 6 dat): 90%

CN(C(=O)c1cnc(Sc2cc(Cl)c(Cl)cc2Cl)n1C)c1cccnc1 [I-A-56]
logP[a] ([2]; method [a]): 2.86
logP[b] ([2]; method [b]): 2.92
% efficacy ([3]; MYZUPE, 100 g ai/ha, 6 dat): 70%

CN(C(=O)c1cnc(Sc2cccc(C(F)(F)F)c2)n1C)c1cccnc1 [I-A-61]
efficacy (aphids killed) [1, 4]: 90%
% efficacy ([3]; MYZUPE, 100 g ai/ha, 6 dat): 90%

CN(C(=O)c1cnc([S+]([O-])c2cc(Cl)cc(Cl)c2)n1C)c1cccnc1 (centres unmarked) [I-A-77]
efficacy (aphids killed) [1, 4]: 90%
% efficacy ([3]; MYZUPE, 100 g ai/ha, 6 dat): 70%

Cc1cnc(Sc2ncc(C(=O)N(C)c3cccnc3)n2C)nc1C [I-A-103]
efficacy (aphids killed) [1, 4]: 100%
logP[a] ([2]; method [a]): 1.23

Cc1ccc(Sc2ncc(C(=O)N(C)c3cccnc3)n2C)nc1 [I-A-109]
efficacy (aphids killed) [1, 4]: 90%
% efficacy ([3]; MYZUPE, 100 g ai/ha, 6 dat): 70%

CN(C(=O)c1cnc(SCc2cccnc2)n1C)c1cccnc1 [I-A-119]
efficacy (aphids killed) [1, 4]: 90%
logP[a] ([2]; method [a]): 0.39
logP[b] ([2]; method [b]): 1.15

CN(C(=O)c1cnc(SCc2ccco2)n1C)c1cccnc1 [I-A-120]
efficacy (aphids killed) [1, 4]: 90%
logP[a] ([2]; method [a]): 1.34
logP[b] ([2]; method [b]): 1.55

CN(C(=O)c1cnc(SCc2c(F)cccc2F)n1C)c1cccnc1 [I-A-123]
efficacy (aphids killed) [1, 4]: 90%
logP[a] ([2]; method [a]): 1.69
logP[b] ([2]; method [b]): 1.92

COc1cccc(F)c1CSc1ncc(C(=O)N(C)c2cccnc2)n1C [I-A-124]
efficacy (aphids killed) [1, 4]: 90%
logP[a] ([2]; method [a]): 1.72
logP[b] ([2]; method [b]): 2.03

CN(C(=O)c1cnc(SCc2c(F)cccc2Cl)n1C)c1cccnc1 [I-A-127]
efficacy (aphids killed) [1, 4]: 90%
logP[a] ([2]; method [a]): 1.89
logP[b] ([2]; method [b]): 2.09

Cc1cc([N+](=O)[O-])nn1CSc1ncc(C(=O)N(C)c2cccnc2)n1C [I-A-131]
efficacy (aphids killed) [1, 4]: 90%
logP[a] ([2]; method [a]): 1.28
logP[b] ([2]; method [b]): 1.40

CN(C(=O)c1cnc(SCC(=O)NC2CC2)n1C)c1cccnc1 [I-A-132]
efficacy (aphids killed) [1, 4]: 90%
logP[a] ([2]; method [a]): 0.59
logP[b] ([2]; method [b]): 0.94
